Measured values: patent publication US8629164B2, “Inhibitors of NF-κB” (Profectus Biosciences, Inc., priority 2009, dated 2014)
Entries after “also recorded” stand apart in the source; their conditions may differ.

Legend:
[1] = test system: human peripheral blood mononuclear cells (hPBMCs); experiment: Cytotoxicity to hPBMCs (CellTiter-Glo); format: cell-based
Protocol: Human peripheral blood mononuclear cells (hPBMCs) were treated with example 1 or DHMEQ and the percentage of viable cells was assessed 24 hours post drug treatment. The graph represents the mean±the standard deviation of three replicate experiments.
The cytotoxicity profile of the compound of Example 1. The cytotoxicity of the compound of Example 1 was determined for human peripheral blood mononuclear cells (hPBMCs). As with the activity assay, the hPBMCs were treated with 0, 0.2, 1, 10, 20 and 40 μM of the compound of Example 1 for 2 hours, and then induced with 20 ng/ml TNF-α for 48 hours. The number of viable cells was determined using CellTiter-Glo luminescent cell viability assay (Promega (cat #G7573)). […] The selectivity index (the ratio of cytotoxicity CC50 to inhibitory IC50) is assigned to the compound of Example 1.

COX-2 expression = experiment: LPS-induced COX-2 expression in RAW264.7 cells; format: cell-based, mouse; conditions: pretreatment, at 6 to 12 h
From the text: LPS stimulation induces the expression of COX-2 the enzyme responsible for prostaglandin E2.

[2] = test system: IL-6 secretion from MDA-MB-231 cells; experiment: IL-6 secretion from MDA-MB-231 cells; format: cell-based
Protocol: (§1) Specifically, A and B show the effects of the compound of Example 1 on IL-6 and IL-8 secretion from MDA-MB-231 cells stimulated by 20 ng/mL TNF-α. The cells were treated with the indicated concentrations of the compound of Example 1 for 2 hours, and then TNF-α was added and incubation continued for 4 hours.

soluble IL-2Rα = experiment: Soluble IL-2Rα expression in PHA-P activated hPBMCs; format: cell-based, human; conditions: 10 μM, three days
Protocol: The graph is the mean of 2 independent experiments.
Soluble IL-2Rα is transcriptionally regulated by NF-κB. […] Human PBMCs were treated with 0, 0.2, 1, 10, 20 and 40 μM of the compound of Example 1 concurrent with PHA-P activation. The cells were cultured for an additional three days and media was harvested for marker assessment.

p50 = biological target: T1, p50 (Homo sapiens, UniProt P19838); experiment: TransAM NF-κB Family DNA Binding ELISA, p50; conditions: p50 binding IC50 (uM), cells without % sign
T1 sequence (P19838 1-433 limits assumed): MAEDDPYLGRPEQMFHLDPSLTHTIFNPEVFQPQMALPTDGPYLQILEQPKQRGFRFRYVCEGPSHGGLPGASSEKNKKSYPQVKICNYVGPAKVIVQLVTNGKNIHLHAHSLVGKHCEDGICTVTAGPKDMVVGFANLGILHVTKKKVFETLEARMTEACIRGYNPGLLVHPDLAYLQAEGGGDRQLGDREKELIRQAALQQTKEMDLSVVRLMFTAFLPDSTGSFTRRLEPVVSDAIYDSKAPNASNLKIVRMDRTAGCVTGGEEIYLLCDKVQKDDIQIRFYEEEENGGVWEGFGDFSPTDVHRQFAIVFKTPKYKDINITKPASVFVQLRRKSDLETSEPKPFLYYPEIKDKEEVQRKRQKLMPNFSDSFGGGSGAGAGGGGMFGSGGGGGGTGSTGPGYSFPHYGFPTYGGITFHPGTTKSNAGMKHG

p52 = biological target: T2, p52 (Homo sapiens, UniProt Q00653); experiment: TransAM NF-κB Family DNA Binding ELISA, p52; conditions: p52 binding IC50 (uM), cells without % sign
T2 sequence (Q00653 1-454 limits assumed): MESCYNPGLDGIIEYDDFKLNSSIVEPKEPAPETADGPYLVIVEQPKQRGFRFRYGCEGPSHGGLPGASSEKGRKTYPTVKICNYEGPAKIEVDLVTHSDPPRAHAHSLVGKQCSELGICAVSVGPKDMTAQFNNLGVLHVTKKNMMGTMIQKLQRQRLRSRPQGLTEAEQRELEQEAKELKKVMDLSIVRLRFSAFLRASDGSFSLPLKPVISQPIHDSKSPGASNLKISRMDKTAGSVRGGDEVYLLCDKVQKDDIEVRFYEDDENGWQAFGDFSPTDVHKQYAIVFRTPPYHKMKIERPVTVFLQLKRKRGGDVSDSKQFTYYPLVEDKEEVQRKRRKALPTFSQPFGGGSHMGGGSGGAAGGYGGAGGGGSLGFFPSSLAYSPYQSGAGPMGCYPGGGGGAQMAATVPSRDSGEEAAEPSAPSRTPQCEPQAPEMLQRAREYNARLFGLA

[3] = test system: IL-8 secretion from MDA-MB-231 cells; experiment: IL-8 secretion from MDA-MB-231 cells; format: cell-based
Protocol: as §1

[4] = test system: human RPMI8226 multiple myeloma; experiment: RPMI8226 multiple myeloma xenograft in mice; format: in vivo
Protocol: Neither PS-341 (1 mg/kg iv days 1, 4/week×4 weeks) nor the compound of Example 2 (15 mg/kg ip QD×21) treatment achieved statistical significant tumor growth inhibition in this study as compared to vehicle treatment (P>0.10).
Several compounds have been assessed for efficacy studies in rodent disease models. We first sought to obtain in vivo efficacy of the compounds in multiple myeloma which has high incidence of constitutive activation of both the canonical and non-canonical pathways.

[5] = test system: collagen-induced arthritis; experiment: Mouse model of collagen-induced rheumatoid arthritis (CIA)
[6] = test system: MDA-MB-231 breast cancer cells; experiment: Cytotoxicity and radio-sensitization in MDA-MB-231 breast cancer cells; format: cell-based
NF-κB [7] = experiment: NF-κB DNA binding activity of p65+/+ MEF nuclear extract after IR; conditions: p65+/+ MEFs
NF-κB [8] = experiment: NF-κB-dependent luciferase expression after IR in p65+/+ MEFs; conditions: 10 Gy IR
[9] = test system: mouse embryonic fibroblasts (MEFs)
[10] = 20 μM, TNF-α 20 ng/mL, MDA-MB-231

## O=C(NC1=CC(=O)C2OC2C1O)c1cccnc1O (racemic) [Example 1, (±)-2-hydroxy-N-(2-hydroxy-5-oxo-7-oxabicyclo[4.1.0]hept-3-en-3-yl)nicotinamide]
[1]
  selectivity (cytotoxicity CC50 to inhibitory IC50) compared to DHMEQ: greater selectivity
[1]; up to 40 μM tested
  cytotoxicity to hPBMCs: little detectable toxicity; also recorded: little cytotoxic effect
COX-2 expression
  LPS-induced COX-2 expression: strong inhibition
[2]; [10]
  IL-6 secretion, TNF-α stimulated: completely inhibited
[2]; MDA-MB-231, unstimulated
  inhibition of constitutive IL-6 secretion: dose-dependent manner
Soluble IL-2Rα
  effect on sIL-2Rα: statistically significant affect
p50
  IC50: 26 µM
p52
  IC50: 13 µM
[3]; [10]
  IL-8 secretion, TNF-α stimulated: completely inhibited
[3]; MDA-MB-231, unstimulated
  inhibition of constitutive IL-8 secretion: dose-dependent manner

## O=C(NC1=CC(=O)C2OC2C1O)c1cc2ccccc2nc1O (racemic) [Example 2, (±)-2-hydroxy-N-(2-hydroxy-5-oxo-7-oxabicyclo[4.1.0]hept-3-en-3-yl)quinoline-3-carboxamide]
[4]; Example 2 15 mg/kg ip QD×21, xenograft mice, 15 mg/kg
  RPMI8226 tumor growth reduction: same level of tumor growth reduction as PS-341; also recorded: reduced RPMI8226 tumor growth
[4]; mouse, in vivo
  tolerability in xenograft model: better tolerated than PS-341
[5]; Example 2 15 mg/kg s.c. qd 21-35, etanercept 50 ug/mouse ip qd 21-35, P<0.05
  anti-inflammation effects vs vehicle treated group: statistal significant anti-inflammation effects
[5]; daily d21-d35
  hind paw erythema and swelling (arthritis index score): significantly reduced
[5]; day 35
  histological evaluation of joints: significant reduction of inflammation
[5]; mouse, in vivo
  myeloperoxidase activities: concomitant reduction
  tolerability of efficacious doses in mice: well tolerated
p50
  IC50: 2.1 µM
[6]; 0.2 μM, MDA-MB-231
  enhancement of radiation effect: 1.5 fold
[6]; 0.2 μM, MDA-MB-231, IR alone 2.55 Gy
  LD50 of IR + compound: 1.66 Gy
[6]; MDA-MB-231 cells
  LD50, single agent cytotoxic effect: 0.4 µM
NF-κB [7]
  nuclear extract NF-κB DNA binding activities after IR: significantly decreased
p52
  IC50: 6 µM
NF-κB [8]
  NF-κB-dependent luciferase expression after IR: reduced luciferase gene transcription significantly; also recorded: significantly reduced luciferase expression
[9]; 1.4 μM
  cytotoxicity to MEFs: non-cytotoxic
  radio-sensitivity of PARP-1+/+ MEFs to IR: increased radio-sensitivities
[9]; p65+/+ MEFs, 1.4 μM, IR alone 2.3 Gy
  LD50 of IR + compound: 1.5 Gy
[9]; p65−/− MEFs
  radio-sensitization of p65−/− MEFs: no further effect
